# Biological target: T1, nitrogen monoxide synthase (NO synthase) (Rattus norvegicus, UniProt P29476)
# T1 construct: the supernatant was then decanted off and frozen in portions; from tissue; host or cells: rat cerebellum (homogenate, 20,000 g supernatant)
# Assay: HTS-NOS assay (nitrogen monoxide synthase assay)
# Format: biochemical
# Settings: compound at 10 μM; enzyme preparation from rat cerebella; [3H]-arginine substrate
# From the text: This assay makes it possible to determine the percentage inhibition of NO synthase by a compound of the general formula I used according to the invention by measuring NOS activity on exposure to the compound. NO synthase is here mixed under suitable conditions together with radioactively labelled arginine and the particular compound of the general formula I. After termination of the NO formation reaction at a predetermined time, the quantity of unconverted arginine is directly or indirectly determined. […] This assay may be carried out at follows: • (a) Incubation of the NO synthase with labelled arginine as the substrate in a reaction vessel, • (b) Separation of the labelled arginine from the labelled citrulline optionally arising as a product of the enzymatic reaction at a time at which the concentration of citrulline is rising, • (c) Measurement of the quantity of arginine separated in each case.
# Separation is performed by means of a filter plate membrane.
# Radioactive arginine is used as the substrate in this HTS-NOS assay. Depending on the type of microtitre plate (MTP), the assay volume may be selected in the range between 25 μl and 250 μl. Depending on the enzyme source used, cofactors and coenzymes are added. The batches are incubated in this microtitre plate (assay MTP) according to step (a) at room temperature and, depending on the enzyme activity used (units), lasts between 5 and 60 minutes. On completion of incubation (step (a)), the plate is placed in a cell harvester, which is equipped with an MTP which has a cation exchange membrane as a filter bottom (filter MTP). All the batches from the assay MTP are transferred into this filter MTP and suction filtered through a cation exchange filter plate, a paper filter loaded with phosphate groups. The filter MTP is then washed with buffer or water. This procedure binds the remaining substrate arginine onto the cation exchanger, while the enzymatically formed radioactive citrulline is quantitatively eluted. Once the filter MTP has been dried and scintillation liquid added, the bound arginine can be counted in the scintillation counter. Low radioactivity indicates an uninhibited NOS reaction. An inhibited enzyme reaction means that the radioactive arginine has not been converted. This means that there is a high level of radioactivity on the filter.
# • Arginine, L-[2,3,4-^3H]-monohydrochloride; item no. […] The pH value of the buffer was adjusted to 7.4 at 25° C. • Washing medium: H2O Enzyme Preparation
# Rat cerebella were used as the starting tissue. The animals were stunned and killed, the brain tissue, the cerebellum, was dissected out, 1 ml of enzyme preparation buffer (4° C.) was added per cerebellum, and the tissue was disrupted for 1 min at 6000 rpm in a Polytron homogeniser. The mixture was then centrifuged at 4° C. for 15 min at 20,000 g, and the supernatant was then decanted off and frozen in portions at −80° C. (discarding the precipitate).
# 96-Well MTPs with a well capacity of ≦250 μl were used Pipetting sequence: see table 1:
# Once the pipetting operation was complete, a lid was laid on top of this MTP (assay MTP). Incubation at 25° C. (room temperature (RT)) for 5-60 min, depending on the quantity and activity of the enzyme used.
# The contents of the assay MTP were then transferred with the assistance of a 96 well cell harvester into a 96 well cation exchange MTP (filter MTP) and suction filtered. A single washing with […] of H2O (from a trough) was then performed.
# The plate was then dried for 1 h at 60° C. in a drying cabinet. The bottom of the filter MTP was then carefully sealed from beneath with a “back seal”. 35 μl of scintillating material were then pipetted into each well. The top of the plate was also sealed with a “top seal”. After 1 hour's waiting time, the plate was assessed on the β-counter.
Compound,inhibition at 10 µM [%],NOS (% inhibition) [%]
"Cc1ccc(NC2CC(C)(c3ccc4c(c3)OCO4)OC2=O)nc1 (stereo not drawn) [Example 39, 5-Benzo[1,3]dioxol-5-yl-5-methyl-3-(5-methyl-pyridin-2-ylamino)-dihydro-furan-2-one]",44,–
"Cc1cc(C)cc(C2(C)CC(Nc3cc(C)cc(C)n3)C(=O)O2)c1 (stereo not drawn) [Example 5, 5-(3,5-Dimethyl-phenyl)-3-(4,6-dimethyl-pyridin-2-ylamino)-5-methyl-dihydro-furan-2-one]",58,–
"Cc1cnc(NC2CC(C)(c3cccc4ccccc34)OC2=O)c(Br)c1 (stereo not drawn) [Example 48, 3-(3-Bromo-5-methyl-pyridin-2-ylamino)-5-methyl-5-naphthalen-l-yl-dihydro-furan-2-one]",–,45
"Cc1cccc(NC2CC(C)(c3ccc4c(c3)OCO4)OC2=O)n1 (stereo not drawn) [Example 40, 5-Benzo[1,3]dioxol-5-yl-5-methyl-3-(6-methyl-pyridin-2-ylamino)-dihydro-furan-2-one]",53,–
"CCCc1cccc(NC2CC(C)(c3cc4ccccc4s3)OC2=O)n1 (stereo not drawn) [Example 27, 5-Benzo[b]thiophen-2-yl-5-methyl-3-(6-propyl-pyridin-2-ylamino)-dihydro-furan-2-one]",43,–
"Cc1cccc(C2(C)CC(Nc3ccc4ccccc4n3)C(=O)O2)c1 (stereo not drawn) [Example 9, 5-Methyl-3-(quinolin-2-ylamino)-5-m-tolyl-dihydro-furan-2-one]",51,–
"CC(C)(C)c1ccc(C2(C)CC(Nc3ncccc3[N+](=O)[O-])C(=O)O2)cc1 (stereo not drawn) [Example 18, 5-(4-tert-Butyl-phenyl)-5-methyl-3-(3-nitro-pyridin-2-ylamino)-dihydro-furan-2-one]",40,–
"CC1(c2ccc3ccccc3c2)CC(Nc2ccc([N+](=O)[O-])cn2)C(=O)O1 (stereo not drawn) [Example 44, 5-Methyl-5-naphthalen-2-yl-3-(5-nitro-pyridin-2-ylamino)-dihydro-furan-2-one]",47,–
"CCOC(=O)c1c[nH]nc1NC1CC(C)(c2ccc3c(c2)OCO3)OC1=O (stereo not drawn) [Example 33, 3-(5-Benzo[1,3]dioxol-5-yl-5-methyl-2-oxo-tetrahydro-furan-3-ylamino)-1H-pyrazole-4-carboxylic acid ethyl ester]",45,–
"Cc1ccnc(NC2CC(C)(c3ccc(C4CCCCC4)cc3)OC2=O)c1 (stereo not drawn) [Example 8, 5-(4-Cyclohexyl-phenyl)-5-methyl-3-(4-methyl-pyridin-2-ylamino)-dihydro-furan-2-one]",41,–
"Cc1ccnc(NC2CC(C)(c3ccc(C(C)(C)C)cc3)OC2=O)c1 (stereo not drawn) [Example 24, 5-(4-tert-Butyl-phenyl)-5-methyl-3-(4-methyl-pyridin-2-ylamino)-dihydro-furan-2-one]",84,–
"Cc1ccnc(NC2CC(C)(c3ccc(C)c(C)c3)OC2=O)c1 (stereo not drawn) [Example 6, 5-(3,4-Dimethyl-phenyl)-5-methyl-3-(4-methyl-pyridin-2-ylamino)-dihydro-furan-2-one]",40,–
"CC1(c2ccc(C#N)cc2)CC(Nc2ncc(Br)cn2)C(=O)O1 (stereo not drawn) [Example 26, 4-[4-(5-Bromo-pyrimidin-2-ylamino)-2-methyl-5-oxo-tetrahydro-furan-2-yl]-benzonitrile]",43,–
"CC(C)C1(c2ccccc2)CC(Nc2ncccn2)C(=O)O1 (stereo not drawn) [Example 45, 5-Isopropyl-5-phenyl-3-(pyrimidin-2-ylamino)-dihydro-furan-2-one]",58,–
"Cc1ccnc(NC2CC(C)(c3ccc4c(c3)OCO4)OC2=O)c1 (stereo not drawn) [Example 37, 5-Benzo[1,3]dioxol-5-yl-5-methyl-3-(4-methyl-pyridin-2-ylamino)-dihydro-furan-2-one]",50,–
"CC1(c2ccc(C#N)cc2)CC(Nc2ncc(Br)cc2[N+](=O)[O-])C(=O)O1 (stereo not drawn) [Example 25, 4-[4-(5-Bromo-3-nitro-pyridin-2-ylamino)-2-methyl-5-oxo-tetrahydro-furan-2-yl]-benzonitrile]",45,–
"Cc1cc(C)nc(NC2CC(C)(c3ccc4ccccc4c3)OC2=O)c1 (stereo not drawn) [Example 36, 3-(4,6-Dimethyl-pyridin-2-ylamino)-5-methyl-5-naphthalen-2-yl-dihydro-furan-2-one]",65,–

# Next, values leading:
inhibition at 10 µM [%],NOS (% inhibition) [%],Compound
59,–,"Cc1ccnc(NC2CC(C)(c3ccc(Br)cc3)OC2=O)c1 (stereo not drawn) [Example 60, 5-(4-Bromo-phenyl)-5-methyl-3-(4-methyl-pyridin-2-ylamino)-dihydro-furan-2-one]"
50,–,"Cc1ccnc(NC2CC(C)(c3cccc(Cl)c3)OC2=O)c1[N+](=O)[O-] (stereo not drawn) [Example 51, 5-(3-Chloro-phenyl)-5-methyl-3-(4-methyl-3-nitro-pyridin-2-ylamino)-dihydro-furan-2-one]"
45,–,"COc1ccccc1C1(C)CC(Nc2ccccn2)C(=O)O1 (stereo not drawn) [Example 67, 5-(2-Methoxy-phenyl)-5-methyl-3-(pyridin-2-ylamino)-dihydro-furan-2-one]"
54,–,"COc1ccc(C2(C)CC(Nc3ncc(C(F)(F)F)cc3Cl)C(=O)O2)c(OC)c1 (stereo not drawn) [Example 71, 3-(3-Chloro-5-trifluoromethyl-pyridin-2-ylamino)-5-(2,4-dimethoxy-phenyl)-5-methyl-dihydro-furan-2-one]"
44,–,"CC1(c2ccc(I)cc2)CC(Nc2ncccc2OCc2ccccc2)C(=O)O1 (stereo not drawn) [Example 55, 3-(3-Benzyloxy-pyridin-2-ylamino)-5-(4-iodo-phenyl)-5-methyl-dihydro-furan-2-one]"
51,–,"COc1ccc(C2(C)CC(Nc3cc(C)cc(C)n3)C(=O)O2)cc1OC (stereo not drawn) [Example 74, 5-(3,4-Dimethoxy-phenyl)-3-(4,6-dimethyl-pyridin-2-ylamino)-5-methyl-dihydro-furan-2-one]"
42,–,"COc1ccc(OC)c(C2(C)CC(Nc3n[nH]c(SC)c3C#N)C(=O)O2)c1 (stereo not drawn) [Example 65, 3-[5-(2,5-Dimethoxy-phenyl)-5-methyl-2-oxo-tetrahydro-furan-3-ylamino]-5-methylsulfanyl-1H-pyrazole-4-carbonitrile]"
72,–,"Cc1cc(C)nc(NC2CC(C)(c3ccc(I)cc3)OC2=O)c1 (stereo not drawn) [Example 57, 3-(4,6-Dimethyl-pyridin-2-ylamino)-5-(4-iodo-phenyl)-5-methyl-dihydro-furan-2-one]"
52,–,"COc1ccc(OC)c(C2(C)CC(Nc3ccccn3)C(=O)O2)c1 (stereo not drawn) [Example 66, 5-(2,5-Dimethoxy-phenyl)-5-methyl-3-(pyridin-2-ylamino)-dihydro-furan-2-one]"
60,–,"COc1cc(OC)cc(C2(C)CC(Nc3ncc(C(F)(F)F)cc3Cl)C(=O)O2)c1 (stereo not drawn) [Example 68, 3-(3-Chloro-5-trifluoromethyl-pyridin-2-ylamino)-5-(3,5-dimethoxy-phenyl)-5-methyl-dihydro-furan-2-one]"
51,–,"COc1ccccc1C1(C)CC(Nc2ncc(Cl)cc2Cl)C(=O)O1 (stereo not drawn) [Example 70, 3-(3,5-Dichloro-pyridin-2-ylamino)-5-(2-methoxy-phenyl)-5-methyl-dihydro-furan-2-one]"
–,40,3-(5-Bromo-6-methyl-pyridin-2-ylamino)-5-methyl-5-naphthalen-l-yl-dihydro-furan-2-one [Example 53]
43,–,"Cc1ccnc(NC2CC(C)(c3ccc(Br)cc3)OC2=O)c1[N+](=O)[O-] (stereo not drawn) [Example 52, 5-(4-Bromo-phenyl)-5-methyl-3-(4-methyl-3-nitro-pyridin-2-ylamino)-dihydro-furan-2-one]"

# From US6943181B2, “Use of substituted gamma-lactone compounds as pharmaceutical preparations” (Grunenthal GmbH, priority 2001, dated 2005)
